ChEMBL document CHEMBL1155960, “Design, synthesis and preliminary biological evaluation of acridine compounds as potential agents for a combined targeted chemo-radionuclide therapy approach to melanoma” (Bioorg Med Chem, 2008)

Columns and labels:
[1] = mouse, in vivo, iv, 72 h
Description: Drug excretion in mouse B16-F0 cells bearing C57BL/6 mouse urine at 0.74 to 0.92 MBq, iv after 72 hrs

[2] = mouse, in vivo, iv, 72 h; remark: listed apart in the source
Description: Drug excretion in mouse B16-F0 cells bearing C57BL/6 mouse feces at 0.74 to 0.92 MBq, iv after 72 hrs

Lung [3] = settings: mouse, in vivo, iv, 3 h
Description: Biodistribution in lung of C57BL/6 mouse bearing mouse B16-F0 cells at 0.74 to 0.92 MBq, iv after 3 hrs

Kidney [4] = settings: mouse, in vivo, iv, 6 h
Description: Biodistribution in kidney of C57BL/6 mouse bearing mouse B16-F0 cells at 0.74 to 0.92 MBq, iv after 6 hrs

[5] = mouse, in vivo, iv, 1 h
Description: Biodistribution in uvea of C57BL/6 mouse bearing mouse B16-F0 cells at 0.74 to 0.92 MBq, iv after 1 hr

Liver [6] = settings: mouse, in vivo, iv, 1 h
Description: Biodistribution in liver of C57BL/6 mouse bearing mouse B16-F0 cells at 0.74 to 0.92 MBq, iv after 1 hr

[7] = mouse, in vivo, iv, 6 h
Description: Biodistribution in intestinal content of C57BL/6 mouse bearing mouse B16-F0 cells at 0.74 to 0.92 MBq, iv after 6 hrs

Muscle tissue [8] = settings: mouse, in vivo, iv, 6 h
Description: Biodistribution in muscle of C57BL/6 mouse bearing mouse B16-F0 cells at 0.74 to 0.92 MBq, iv after 6 hrs

Brain [9] = settings: mouse, in vivo, iv, 1 h
Description: Biodistribution in brain of C57BL/6 mouse bearing mouse B16-F0 cells at 0.74 to 0.92 MBq, iv after 1 hr

physchem = settings: phosphate buffer solution, pH 7.4
Description: Partition coefficient, log P in phosphate buffer solution at pH 7.4

Liver [10] = settings: mouse, in vivo, iv, 24 h
Description: Biodistribution in liver of C57BL/6 mouse bearing mouse B16-F0 cells at 0.74 to 0.92 MBq, iv after 24 hrs

[11] = mouse, in vivo, iv, 1 h; remark: listed apart in the source
Description: Biodistribution in intestinal content of C57BL/6 mouse bearing mouse B16-F0 cells at 0.74 to 0.92 MBq, iv after 1 hr

[12] = mouse, in vivo, iv, 3 h
Description: Biodistribution in stomach content of C57BL/6 mouse bearing mouse B16-F0 cells at 0.74 to 0.92 MBq, iv after 3 hrs

[13] = mouse, in vivo, iv, 6 h; remark: listed apart in the source
Description: Biodistribution in uvea of C57BL/6 mouse bearing mouse B16-F0 cells at 0.74 to 0.92 MBq, iv after 6 hrs

Brain [14] = settings: mouse, in vivo, iv, 3 h
Description: Biodistribution in brain of C57BL/6 mouse bearing mouse B16-F0 cells at 0.74 to 0.92 MBq, iv after 3 hrs

[15] = mouse, in vivo, iv, 72 h; remark: listed apart in the source
Description: Biodistribution in uvea of C57BL/6 mouse bearing mouse B16-F0 cells at 0.74 to 0.92 MBq, iv after 72 hrs

[16] = mouse, in vivo, iv, 3 h; remark: listed apart in the source
Description: Biodistribution in intestinal content of C57BL/6 mouse bearing mouse B16-F0 cells at 0.74 to 0.92 MBq, iv after 3 hrs

[17] = mouse, in vivo, iv, 6 h; remark: listed apart in the source
Description: Biodistribution in stomach content of C57BL/6 mouse bearing mouse B16-F0 cells at 0.74 to 0.92 MBq, iv after 6 hrs

[18] = mouse, in vivo, iv, 24 h
Description: Biodistribution in uvea of C57BL/6 mouse bearing mouse B16-F0 cells at 0.74 to 0.92 MBq, iv after 24 hrs

Liver [19] = settings: mouse, in vivo, iv, 3 h
Description: Biodistribution in liver of C57BL/6 mouse bearing mouse B16-F0 cells at 0.74 to 0.92 MBq, iv after 3 hrs

Spleen [20] = settings: mouse, in vivo, iv, 3 h
Description: Biodistribution in spleen of C57BL/6 mouse bearing mouse B16-F0 cells at 0.74 to 0.92 MBq, iv after 3 hrs

Lung [21] = settings: mouse, in vivo, iv, 1 h
Description: Biodistribution in lung of C57BL/6 mouse bearing mouse B16-F0 cells at 0.74 to 0.92 MBq, iv after 1 hr

[22] = mouse, in vivo, iv, 72 h; remark: listed apart in the source
Description: Biodistribution in melanoma of C57BL/6 mouse bearing mouse B16-F0 cells at 0.74 to 0.92 MBq, iv after 72 hrs

Muscle tissue [23] = settings: mouse, in vivo, iv, 1 h
Description: Biodistribution in muscle of C57BL/6 mouse bearing mouse B16-F0 cells at 0.74 to 0.92 MBq, iv after 1 hr

Kidney [24] = settings: mouse, in vivo, iv, 3 h
Description: Biodistribution in kidney of C57BL/6 mouse bearing mouse B16-F0 cells at 0.74 to 0.92 MBq, iv after 3 hrs

Kidney [25] = settings: mouse, in vivo, iv, 1 h
Description: Biodistribution in kidney of C57BL/6 mouse bearing mouse B16-F0 cells at 0.74 to 0.92 MBq, iv after 1 hr

Lung [26] = settings: mouse, in vivo, iv, 6 h
Description: Biodistribution in lung of C57BL/6 mouse bearing mouse B16-F0 cells at 0.74 to 0.92 MBq, iv after 6 hrs

Muscle tissue [27] = settings: mouse, in vivo, iv, 3 h
Description: Biodistribution in muscle of C57BL/6 mouse bearing mouse B16-F0 cells at 0.74 to 0.92 MBq, iv after 3 hrs

[28] = mouse, in vivo, iv, 1 h; remark: listed apart in the source
Description: Biodistribution in stomach content of C57BL/6 mouse bearing mouse B16-F0 cells at 0.74 to 0.92 MBq, iv after 1 hr

[29] = mouse, in vivo, iv, 3 h; remark: listed apart in the source
Description: Biodistribution in uvea of C57BL/6 mouse bearing mouse B16-F0 cells at 0.74 to 0.92 MBq, iv after 3 hrs

Blood [30] = settings: mouse, in vivo, iv, 1 h
Description: Biodistribution in blood of C57BL/6 mouse bearing mouse B16-F0 cells at 0.74 to 0.92 MBq, iv after 1 hr

Spleen [31] = settings: mouse, in vivo, iv, 1 h
Description: Biodistribution in spleen of C57BL/6 mouse bearing mouse B16-F0 cells at 0.74 to 0.92 MBq, iv after 1 hr

Liver [32] = settings: mouse, in vivo, iv, 6 h
Description: Biodistribution in liver of C57BL/6 mouse bearing mouse B16-F0 cells at 0.74 to 0.92 MBq, iv after 6 hrs

Blood [33] = settings: mouse, in vivo, iv, 3 h
Description: Biodistribution in blood of C57BL/6 mouse bearing mouse B16-F0 cells at 0.74 to 0.92 MBq, iv after 3 hrs

Row | Compound | Drug uptake [1] | Drug uptake [2] | Drug uptake (Lung [3]) | Drug uptake (Kidney [4]) | Drug uptake [5] | Drug uptake [7] | Drug uptake (Muscle tissue [8]) | Drug uptake (Brain [9]) | logD (physchem) | Drug uptake (Liver [10]) | Drug uptake [11] | Drug uptake [13] | Drug uptake (Brain [14]) | Drug uptake [15] | Drug uptake [16] | Drug uptake [18] | Drug uptake (Liver [19]) | Drug uptake (Spleen [20]) | Drug uptake (Lung [21]) | Drug uptake [22] | also measured
1 | CCN(CC)CCNC(=O)c1cccc2c(=O)c3cc([125I])ccc3[nH]c12.Cl | 10.4 %ID | 38.4 %ID | – | – | – | – | – | – | – | – | – | – | – | – | – | – | – | – | – | – | –
2 | CCN(CC)CCNC(=O)c1ccc(I)cc1.Cl | 83.1 %ID | 4.8 %ID | 2 % ID/g | 1.6 % ID/g | 13.1 % ID/g | 3.3 % ID/g | 0.1 % ID/g | 1.5 % ID/g | 1.34 | 0.4 % ID/g | 7.4 % ID/g | 13 % ID/g | 0.8 % ID/g | 3.8 % ID/g | 3.7 % ID/g | 6.1 % ID/g | 3.3 % ID/g | 0.8 % ID/g | 5.5 % ID/g | 0.88 % ID/g | Drug uptake (Liver [6]): 5.9 % ID/g; Drug uptake [12]: 4.3 % ID/g; Drug uptake [17]: 4.5 % ID/g; Drug uptake (Muscle tissue [23]): 1.3 % ID/g; Drug uptake (Kidney [24]): 3.1 % ID/g; Drug uptake (Kidney [25]): 7.3 % ID/g; Drug uptake (Lung [26]): 1 % ID/g; Drug uptake (Muscle tissue [27]): 0.4 % ID/g; Drug uptake [28]: 10.1 % ID/g; Drug uptake [29]: 12 % ID/g; Drug uptake (Blood [30]): 1.1 % ID/g; Drug uptake (Spleen [31]): 4 % ID/g; Drug uptake (Liver [32]): 2.6 % ID/g; Drug uptake (Blood [33]): 0.2 % ID/g
3 | CCN(CC)CCNC(=O)c1cccc2c(=O)c3cc(I)ccc3[nH]c12.Cl | – | – | 14 % ID/g | 8.9 % ID/g | 15.2 % ID/g | 32.9 % ID/g | 0.9 % ID/g | 1.6 % ID/g | 0.27 | 1.2 % ID/g | 22.7 % ID/g | 19.5 % ID/g | 1.2 % ID/g | 26.4 % ID/g | 27.81 % ID/g | 27.5 % ID/g | 9.3 % ID/g | 9.9 % ID/g | 23.9 % ID/g | 17.5 % ID/g | Drug uptake (Muscle tissue [23]): 1.9 % ID/g; Drug uptake (Kidney [24]): 13 % ID/g; Drug uptake (Kidney [25]): 17.6 % ID/g; Drug uptake (Lung [26]): 10 % ID/g; Drug uptake (Muscle tissue [27]): 1.4 % ID/g; Drug uptake [29]: 16.9 % ID/g; Drug uptake (Blood [30]): 2.08 % ID/g; Drug uptake (Spleen [31]): 13.9 % ID/g; Drug uptake (Blood [33]): 1.4 % ID/g
